Assay [1] deals with T1, AM1 receptor (CLR-RAMP2) in HUAECs (Homo sapiens, UniProt O60895+Q16602).
T1 construct: host or cells: primary HUAECs
Nature of the assay: mobilisation of Ca2+i in HUAECs. Type of assay: cell-based. On the procedure:
All cell lines were plated at 20,000 cells/well on 96-well black clear-bottom plates (Costar, UK) 24 h before the experiment. […] Cells were then washed twice with calcium-free HBSS, then were left in 100 μl calcium-free HBSS for the duration of the assay. […] Data was normalised to the response seen with 10 μM Ionomycin.
All sample sizes were determined, and data analysed, in accordance with the guidelines described by Curtis M et al.[65]. All experiments were appropriately controlled using ‘system pathway’ agonists. If any of these pathway controls generated inappropriate responses, then the entire data set was removed from analysis. […] Data analysis for cAMP accumulation, Ca^2+i mobilisation, NO accumulation, pERK1/2 activation, and cell proliferation assays were performed in GraphPad Prism 8.4 (GraphPad Software, San Diego). Data were fitted to obtain concentration–response curves using either the three-parameter logistic equation using to obtain values of Emax and pEC50 or the operational model of agonism. Statistical differences were analysed using one-way ANOVA followed by Dunnett’s post-hoc (for comparisons amongst more than two groups) or unpaired Student’s t test with Welch’s correction (for comparison between two groups). To account for the day-to-day variation experienced from the cultured cells, we used the maximal level of cAMP accumulation from cells in response to 100 μM forskolin stimulation was used as a reference, 10 μM ionomycin for Ca^2+i assays, 10 μM phorbol 12-myristate 13-acetate (PMA) for pERK1/2 activation, 10 μM acetylcholine for NO production and 10 μM VEGF for cell proliferation. […] Where appropriate the operational model for receptor agonism[27] was used to obtain efficacy (τ) and equilibrium disassociation constant (KA) values. In both cases, this normalisation removes the variation due to differences in days but retains the variance for control values. The means of individual experiments were combined to generate the curves shown. Having obtained values for τ and KA these were then used to quantify signalling bias as the change in Log(τ/KA)[19],[28]. Error for this composite measure was propagated by applying Eq. 1.1 PooledSEM=(SEMA)^2+(SEMB)^2 Where, SEMA and SEMB are the standard error of measurement A and B.
(1 picture or pasted object on this page, not shown here)

In assay [2] the test system is RAMP1-HUVECs. Nature of the assay: cell proliferation (72 h) of RAMP1-HUVECs. Type of assay: cell-based, human. Conditions: RAMP1-HUVEC. On the procedure: (§1) Data are analysed using a three-parameter non-linear regression curve or the operational model of receptor agonism. g–h Signalling bias plots were calculated as ∆Log(τ/KA) (g) or ∆∆Log(τ/KA) (h) for each agonist and for each signalling pathway. […] All data represent mean ± SEM for n repeats.
Both endothelial cell lines and HCMs were seeded at a density of 2500 cells/well in a clear flat bottom 96-well plate (Corning, UK) and incubated at 37 °C in 5% CO2. After 24 h, cells were exposed to test compounds or vehicle, in complete endothelial cell growth media (HUVECs) or myocyte growth media (HCMs). Cells were incubated for a further 72 h at 37 °C in 5% CO2. After 72 h incubation, 5 μl of Cell Counting Kit–8 (CCK-8, Sigma, UK) was added to each well and cells were then incubated for another 2 h at 37 °C in 5% CO2 and in the dark[61]. The absorbance of each well was measured using a Mithras LB940 microplate reader with an excitation of 450 nm. The absorbance is directly proportional to the number of viable cells. Cell proliferation was calculated as a percentage of number of cells treated with vehicle alone.
All sample sizes were determined, and data analysed, in accordance with the guidelines described by Curtis M et al.[65]. All experiments were appropriately controlled using ‘system pathway’ agonists. If any of these pathway controls generated inappropriate responses, then the entire data set was removed from analysis.

In assay [3] the target is T2, CGRP receptor (CLR-RAMP1) in RAMP1-HUVECs (Homo sapiens, UniProt O60894+Q16602).
T2 construct: biased agonism at the endogenous CLR in a physiological system; the open reading frame of RAMP1 into our HUVEC∆RAMP2 cell line; host or cells: HUVEC-∆RAMP2 (CRISPR-Cas9 RAMP2 knockout pool), lentiviral transduction, blasticidin selection
Nature of the assay: cAMP accumulation in RAMP1-HUVECs. In kind it is cell-based. The note with it: RAMP1-HUVEC, 30 min, relative to 100 μM forskolin, mean ± SEM. The procedure: as §1
All primary cell lines were cultured as above. On the day of the experiment media was removed and cells washed with PBS, before being dissociated with Trypsin-EDTA 0.05% (Gibco, UK) and then resuspended in PBS/BSA (0.1%) (Sigma, UK). Cells were immediately plated for use in cAMP assay as per the manufacturer’s instructions, reagents used were provided by the LANCE® cAMP detection assay kit (PerkinElmer, Boston, MA, USA), in 384 well optiplates (PerkinElmer (Boston, MA, USA)) at 2000 cells/well in 5 μl aliquots. […] Cells were incubated with compound for 30 min prior to adding detection buffer[28],[60]. Plates were incubated for a further 60 min (room temperature) and then read on a plate reader (Mithras LB 940 microplate reader (Berthold technologies, Germany)). All responses were normalised to 100μM forskolin (Tocris, UK). Antagonist studies were performed in the same way through co-stimulation of the relevant concentration. Alongside control-treated cell. […]
All sample sizes were determined, and data analysed, in accordance with the guidelines described by Curtis M et al.[65]. […]
A general note: cAMP levels reflect the balance of adenylyl cyclase and phosphodiesterase activity.

[4] abbreviates: Ca2+i, HUAEC, operational model, mean ± SEM.
The mark [5] stands for this setting: proliferation, operational model, mean ± SEM.

Each structure is given as a SMILES string.

T1 sequence (Q16602 23-461): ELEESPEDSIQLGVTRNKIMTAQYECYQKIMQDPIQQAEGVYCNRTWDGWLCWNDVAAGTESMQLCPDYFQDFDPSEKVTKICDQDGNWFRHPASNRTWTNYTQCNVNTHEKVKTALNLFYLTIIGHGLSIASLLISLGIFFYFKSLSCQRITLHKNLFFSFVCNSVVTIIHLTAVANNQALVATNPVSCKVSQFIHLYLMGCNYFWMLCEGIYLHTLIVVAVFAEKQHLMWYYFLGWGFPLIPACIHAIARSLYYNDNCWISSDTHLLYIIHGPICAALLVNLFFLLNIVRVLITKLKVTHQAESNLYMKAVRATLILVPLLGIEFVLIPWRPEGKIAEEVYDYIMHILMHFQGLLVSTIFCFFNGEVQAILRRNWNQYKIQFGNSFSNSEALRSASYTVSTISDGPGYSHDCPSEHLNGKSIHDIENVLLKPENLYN
T1 sequence (O60895 43-175): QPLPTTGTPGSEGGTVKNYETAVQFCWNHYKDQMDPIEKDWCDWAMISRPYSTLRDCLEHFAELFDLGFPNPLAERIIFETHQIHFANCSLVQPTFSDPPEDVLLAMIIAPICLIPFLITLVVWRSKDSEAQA
T2 sequence (Q16602 23-461): as the sequence (Q16602 23-461) above
T2 sequence (O60894 27-148): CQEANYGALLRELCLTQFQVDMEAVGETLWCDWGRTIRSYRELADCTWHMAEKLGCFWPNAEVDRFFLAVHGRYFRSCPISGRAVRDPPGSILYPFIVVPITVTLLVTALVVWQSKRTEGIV

For orientation: pEC50 means the EC50 on a negative log10 scale, so that one unit is a factor of ten. Read a high pEC50 as a small EC50. `CSCC[C@H](NC(=O)[C@H](CC(C)C)NC(=O)[C@H](CCC(N)=O)NC(=O)[C@H](Cc1c[nH]c2ccccc12)NC(=O)[C@H](CC(C)C)NC(=O)[C@H](CCCNC(=N)N)NC(=O)[C@H](Cc1c[nH]cn1)NC(=O)[C@H](CO)NC(=O)[C@H](CC(C)C)NC(=O)[C@H](CC(N)=O)NC(=O)[C@H](CCC(N)=O)NC(=O)[C@@H](NC(=O)[C@H](CCC(N)=O)NC(=O)[C@@H]1CSSC[C@H](NC(=O)CNC(=O)[C@@H](NC(=O)[C@H](CCCNC(=N)N)NC(=O)[C@H](CC(C)C)NC(=O)[C@H](CC(C)C)NC(=O)[C@H](CCC(N)=O)NC(=O)[C@H](C)NC(=O)[C@H](CCC(N)=O)NC(=O)[C@@H](N)[C@@H](C)O)C(C)C)C(=O)N[C@@H](C(C)C)C(=O)N[C@@H](CC(C)C)C(=O)NCC(=O)N[C@@H]([C@@H](C)O)C(=O)N1)C(C)C)C(=O)NCC(=O)N1CCC[C@H]1C(=O)N[C@@H](C)C(=O)NCC(=O)N[C@@H](CCCNC(=N)N)C(=O)N[C@@H](CCC(N)=O)C(=O)N[C@@H](CC(=O)O)C(=O)N[C@@H](CO)C(=O)N[C@@H](C)C(=O)N1CCC[C@H]1C(=O)N[C@H](C(=O)N[C@@H](CC(=O)O)C(=O)N1CCC[C@H]1C(=O)N[C@@H](CO)C(=O)N[C@@H](CO)C(=O)N1CCC[C@H]1C(=O)N[C@@H](Cc1c[nH]cn1)C(=O)N[C@@H](CO)C(=O)N[C@@H](Cc1ccc(O)cc1)C(N)=O)C(C)C` [AM2, adrenomedullin 2]: the Emax in assay [1] worked out at 50.1 ± 3.22%; in assay [2] (proliferation, 72 h, CCK-8, mean ± SEM) it was 201.29±11.45%. The “Transducer coefficient Log(τ/KA)” value is 7.60±0.14 in assay [1] (Ca2+i, HUAEC, calculated from Table S1) and 5.73±0.56 in assay [2] (Growth, calculated from Table S2). The logτ in assay [1] (setting [4]) was -0.01±0.05; in assay [2] (setting [5]), 0.71±0.34. Also, the results for the pKA in assay [1] (setting [4]) and in assay [2] (setting [5]) were 7.61±0.13 and 5.02±0.44, respectively. Further, the promotion of growth result in assay [2] (72 h) is “could also promote growth”. Also, in assay [2] (proliferation, 72 h, mean ± SEM of 3-6 data sets), the pEC50 was 5.85±0.17.

Consider `CC[C@H](C)[C@H](NC(=O)[C@H](CCC(N)=O)NC(=O)[C@H](Cc1c[nH]cn1)NC(=O)[C@H](C)NC(=O)[C@H](CC(C)C)NC(=O)[C@H](CCCCN)NC(=O)[C@H](CCC(N)=O)NC(=O)[C@@H](NC(=O)[C@@H](NC(=O)[C@@H]1CSSC[C@H](NC(=O)CNC(=O)[C@H](Cc2ccccc2)NC(=O)[C@H](CO)NC(=O)[C@H](CCCNC(=N)N)NC(=O)[C@H](CC(C)C)NC(=O)CNC(=O)[C@H](CCC(N)=O)NC(=O)[C@H](Cc2ccccc2)NC(=O)[C@H](CC(N)=O)NC(=O)[C@H](CC(N)=O)NC(=O)[C@H](CCSC)NC(=O)[C@H](CO)NC(=O)[C@H](CCC(N)=O)NC(=O)[C@H](CCCNC(=N)N)NC(=O)[C@@H](N)Cc2ccc(O)cc2)C(=O)N[C@@H](CCCNC(=N)N)C(=O)N[C@@H](Cc2ccccc2)C(=O)NCC(=O)N[C@@H]([C@@H](C)O)C(=O)N1)[C@@H](C)O)C(C)C)C(=O)N[C@@H](Cc1ccc(O)cc1)C(=O)N[C@@H](CCC(N)=O)C(=O)N[C@@H](Cc1ccccc1)C(=O)N[C@H](C(=O)N[C@@H](CC(=O)O)C(=O)N[C@@H](CCCCN)C(=O)N[C@@H](CC(=O)O)C(=O)N[C@@H](CCCCN)C(=O)N[C@@H](CC(=O)O)C(=O)N[C@@H](CC(N)=O)C(=O)N[C@H](C(=O)N[C@@H](C)C(=O)N1CCC[C@H]1C(=O)N[C@@H](CCCNC(=N)N)C(=O)N[C@@H](CO)C(=O)N[C@@H](CCCCN)C(=O)N[C@H](C(=O)N[C@@H](CO)C(=O)N1CCC[C@H]1C(=O)N[C@@H](CCC(N)=O)C(=O)NCC(=O)N[C@@H](Cc1ccc(O)cc1)C(N)=O)[C@@H](C)CC)C(C)C)[C@@H](C)O` [AM, adrenomedullin], for which, in assay [3], the Emax turned out to be 39 ± 2.08%.

The record behind these values is article PMC8222276 (Communications Biology, 2021).
